From US10821115B2, “Compounds that inhibit Mcl-1 protein” (priority 2017, dated 2020)
Read-outs that look alike come from different tables or passages of the source.

Key:
[1] = biological target: recombinant human Mcl-1 (residues 171-327) / Bim interaction (Homo sapiens (Human), UniProt Q07820); test: biochemical; assay type: binding; details: read-out: Mcl-1 HTRF IC50
Method: The inhibition of the Mcl-1/Bim interaction was measured using a time-resolved fluorescence resonance energy transfer (TR-FRET) assay. […] The TR-FRET assay was conducted in a 384-well white OptiPlate™ (PerkinElmer, Waltham, Mass.) in a total volume of 40 μL. The reaction mixture contained 0.1 nM Mcl-1(171-327), 0.05 nM biotin-Bim (51-76), 0.05 nM LANCE® Eu-W1024 Anti-6×His (PerkinElmer), 0.072 nM Streptavidin-Xlent (Cisbio, Bedford, Mass.), and serially diluted test compounds in the binding buffer of 20 mM Hepes, pH 7.5, 150 mM NaCl, 0.016 mM Brij®35, and 1 mM dithiothreitol. Test compounds were pre-incubated with Mcl-1(171-327) and biotin-Bim (51-76) for 60 min before addition of the detection mixture (LANCE® Eu-W1024 Anti-6×His and Streptavidin-Xlent). The reaction plates were further incubated overnight and then were read on an Envision® multimode reader (PerkinElmer). Fluorescence signals were measured at 620 nm (40-nm bandwidth) and 665 nm (7.5-nm bandwidth) with a 60 is delay after excitation at 320 nm (75-nm bandwidth). The signal ratio at 665/620 nm corresponded to the Mcl-1/Bim interaction and was used in all data analyses. The IC50 values of test compounds were determined from duplicate data by analyzing competition curves using a four-parameter sigmoidal model in GraphPad Prism (GraphPad Software, San Diego, Calif.) or in Genedata Screener® (Genedata, Basel, Switzerland).

[2] = system: human multiple myeloma cell line, OPM-2; test: Cell viability assay (OPM-2 10 FBS), CellTiter-Glo; assay type: cell-based
How it was run: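 Steps: plate cells at 3000/well in 10% FBS growth medium, add serially diluted compound, incubate 16 h at 37 °C with 5% CO2, add detection reagent and read luminescence after 25 min. A 4-parameter logistic model gives IC50.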

[3] = TR-FRET, Mcl-1(171-327) / biotin-Bim (51-76)
[4] = read-out: OPM-2 10% FBS IC50 IP, OPM-2 cells, 10% FBS, 16 h, CellTiter-Glo
[5] = Homo sapiens, OPM-2, 16 h, read-out: OPM-2 10% FBS IC50 IP, OPM-2 cells, 10% FBS, 16 h, CellTiter-Glo

Sequence of recombinant human Mcl-1 (residues 171-327) / Bim interaction (Q07820 171-327): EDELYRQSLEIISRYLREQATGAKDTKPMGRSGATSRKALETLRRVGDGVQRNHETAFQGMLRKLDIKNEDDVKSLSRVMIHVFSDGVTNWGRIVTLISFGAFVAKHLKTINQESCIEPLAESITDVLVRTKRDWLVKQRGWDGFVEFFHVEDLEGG

| SMILES | IC50 [1, 3] [nM] | IC50 [2, 4] [nM] | IC50 [2, 5] [nM] | IC50 [1] [nM] |
| --- | --- | --- | --- | --- |
| C[C@@H]1[C@@H](C)CCC[C@@](O)(CC(=O)N2CCCCC2)[C@@H]2CC[C@H]2CN2C[C@@]3(CCCc4cc(Cl)ccc43)COc3ccc(cc32)C(=O)NS1(=O)=O [Example 100090, (1S,3′R,6′R,7′R,11′S,12′R)-6-chloro-7′-hydroxy-11′,12′-dimethyl-7′-(2-oxo-2-(1-piperidinyl)ethyl)-3,4-dihydro-2H,15′H-spiro[naphthalene-1,22′-[20]oxa[13]thia[1,14]diazatetracyclo [14.7.2.0~3,6~.0~19,24~]pentacosa[16,18,24]trien]-15′-one 13′,13′-dioxide] | 0.795 | 798 | – | – |
| C[C@@H]1[C@@H](C)CCC[C@@](O)(CCN2CCCCC2)[C@@H]2CC[C@H]2CN2C[C@@]3(CCCc4cc(Cl)ccc43)COc3ccc(cc32)C(=O)NS1(=O)=O [Example 100091, (1S,3′R,6′R,7′R,11′S,12′R)-6-chloro-7′-hydroxy-11′,12′-dimethyl-7′-(2-(1-piperidinyl)ethyl)-3,4-dihydro-2H,15′H-spiro[naphthalene-1,22′-[20]oxa[13]thia[1,14]diazatetracyclo [14.7.2.0~3,6~.0~19,24~]pentacosa[16,18,24]trien]-15′-one 13′,13′-dioxide] | 1.2 | – | 1350 | – |
| C[C@@H]1[C@@H](C)CCC[C@@](O)(CCN2CCCCC2)[C@@H]2CC[C@H]2CN2C[C@@]3(CCCc4cc(Cl)ccc43)COc3ccc(cc32)C(=O)NS1(=O)=O [Example 100092, (1S,3′R,6′R,7′R,11′S,12′R)-6-chloro-7′-hydroxy-11′,12′-dimethyl-7′-(2-(1-piperidinyl)ethyl)-3,4-dihydro-2H,15′H-spiro[naphthalene-1,22′-[20]oxa[13]thia[1,14]diazatetracyclo [14.7.2.0~3,6~.0~19,24~]pentacosa[16,18,24]trien]-15′-one 13′,13′-dioxide] | 4.02 | 2210 | – | – |
| C[C@@H]1[C@@H](C)CCC[C@@](O)(CCN2CC(F)(F)C2)[C@@H]2CC[C@H]2CN2C[C@@]3(CCCc4cc(Cl)ccc43)COc3ccc(cc32)C(=O)NS1(=O)=O [Example 100093, (1S,3′R,6′R,7′R,11′S,12′R)-6-chloro-7′-(2-(3,3-difluoro-1-azetidinyl)ethyl)-7′-hydroxy-11′,12′-dimethyl-3,4-dihydro-2H,15′H-spiro[naphthalene-1,22′-[20]oxa[13]thia[1,14]diazatetracyclo [14.7.2.0~3,6~.0~19,24~]pentacosa[16,18,24]trien]-15′-one 13′,13′-dioxide] | 0.291 | 554 | – | – |
| C[C@@H]1[C@@H](C)CCC[C@@](O)(CCN2CC(F)(F)C2)[C@@H]2CC[C@H]2CN2C[C@@]3(CCCc4cc(Cl)ccc43)COc3ccc(cc32)C(=O)NS1(=O)=O [Example 100094, (1S,3′R,6′R,7′R,11′S,12′R)-6-chloro-7′-(2-(3,3-difluoro-1-azetidinyl)ethyl)-7′-hydroxy-11′,12′-dimethyl-3,4-dihydro-2H,15′H-spiro[naphthalene-1,22′-[20]oxa[13]thia[1,14]diazatetracyclo [14.7.2.0~3,6~.0~19,24~]pentacosa[16,18,24]trien]-15′-one 13′,13′-dioxide] | 3.83 | 4380 | – | – |
| C[C@@H]1[C@@H](C)CCC[C@@](O)(CCN2CCOCC2)[C@@H]2CC[C@H]2CN2C[C@@]3(CCCc4cc(Cl)ccc43)COc3ccc(cc32)C(=O)NS1(=O)=O [Example 100095, (1S,3′R,6′R,7′R,11′S,12′R)-6-chloro-7′-hydroxy-11′,12′-dimethyl-7′-(2-(4-morpholinyl)ethyl)-3,4-dihydro-2H,15′H-spiro[naphthalene-1,22′-[20]oxa[13]thia[1,14]diazatetracyclo [14.7.2.0~3,6~.0~19,24~]pentacosa[16,18,24]trien]-15′-one 13′,13′-dioxide] | 0.148 | 113 | – | – |
| C[C@@H]1[C@@H](C)CCC[C@@](O)(CCN2CCOCC2)[C@@H]2CC[C@H]2CN2C[C@@]3(CCCc4cc(Cl)ccc43)COc3ccc(cc32)C(=O)NS1(=O)=O [Example 100096, (1S,3′R,6′R,7′R,11′S,12′R)-6-chloro-7′-hydroxy-11′,12′-dimethyl-7′-(2-(4-morpholinyl)ethyl)-3,4-dihydro-2H,15′H-spiro[naphthalene-1,22′-[20]oxa[13]thia[1,14]diazatetracyclo [14.7.2.0~3,6~.0~19,24~]pentacosa[16,18,24]trien]-15′-one 13′,13′-dioxide] | 0.624 | 517 | – | – |
| C[C@@H]1[C@@H](C)CCC[C@](O)(CC(=O)O)[C@@H]2CC[C@H]2CN2C[C@@]3(CCCc4cc(Cl)ccc43)COc3ccc(cc32)C(=O)NS1(=O)=O [Example 100097, ((1S,3′R,6′R,7′S,11′S,12′R)-6-chloro-7′-hydroxy-11′,12′-dimethyl-13′,13′-dioxido-15′-oxo-3,4-dihydro-2H-spiro[naphthalene-1,22′-[20]oxa[13]thia[1,14]diazatetracyclo [14.7.2.0~3,6~.0~19,24~]pentacosa[16,18,24]trien]-7′-yl)acetic acid] | 0.081 | – | 5230 | – |
| CNC(=O)C[C@]1(O)CCC[C@H](C)[C@@H](C)S(=O)(=O)NC(=O)c2ccc3c(c2)N(C[C@@H]2CC[C@H]21)C[C@@]1(CCCc2cc(Cl)ccc21)CO3 [Example 100098, 2-((1S,3′R,6′R,7′R,11′S,12′R)-6-chloro-7′-hydroxy-11′,12′-dimethyl-13′,13′-dioxido-15′-oxo-3,4-dihydro-2H-spiro[naphthalene-1,22′-[20]oxa[13]thia[1,14]diazatetracyclo [14.7.2.0~3,6~.0~19,24~]pentacosa[16,18,24]trien]-7′-yl)-N-methylacetamide] | 0.231 | – | 748 | – |
| C[C@@H]1[C@@H](C)CCC[C@@](O)(CS(=O)(=O)N(C)C)[C@@H]2CC[C@H]2CN2C[C@@]3(CCCc4cc(Cl)ccc43)COc3ccc(cc32)C(=O)NS1(=O)=O [Example 100099, 1-((1S,3′R,6′R,7′S,11′S,12′R)-6-chloro-7′-hydroxy-11′,12′-dimethyl-13′,13′-dioxido-15′-oxo-3,4-dihydro-2H-spiro[naphthalene-1,22′-[20]oxa[13]thia[1,14]diazatetracyclo [14.7.2.0~3,6~.0~19,24~]pentacosa[16,18,24]trien]-7′-yl)-N,N-dimethylmethanesulfonamide] | – | 349 | – | 0.659 |
| C[C@@H]1[C@@H](C)CCC[C@@](O)(CS(=O)(=O)N(C)C)[C@@H]2CC[C@H]2CN2C[C@@]3(CCCc4cc(Cl)ccc43)COc3ccc(cc32)C(=O)NS1(=O)=O [Example 100100, 1-((1S,3′R,6′R,7′S,11′S,12′R)-6-chloro-7′-hydroxy-11′,12′-dimethyl-13′,13′-dioxido-15′-oxo-3,4-dihydro-2H-spiro[naphthalene-1,22′-[20]oxa[13]thia[1,14]diazatetracyclo [14.7.2.0~3,6~.0~19,24~]pentacosa[16,18,24]trien]-7′-yl)-N,N-dimethylmethanesulfonamide] | – | 1320 | – | 2.1 |
| C[C@@H]1[C@@H](C)C/C=C/[C@@](O)(CC(=O)O)[C@@H]2CC[C@H]2CN2C[C@@]3(CCCc4cc(Cl)ccc43)COc3ccc(cc32)C(=O)NS1(=O)=O [Example 100101, ((1S,3′R,6′R,7′S,8′E,11′S,12′R)-6-chloro-7′-hydroxy-11′,12′-dimethyl-13′,13′-dioxido-15′-oxo-3,4-dihydro-2H-spiro[naphthalene-1,22′-[20]oxa[13]thia[1,14]diazatetracyclo [14.7.2.0~3,6~.0~19,24~]pentacosa[8,16,18,24]tetraen]-7′-yl)acetic acid] | 0.062 | – | 2600 | – |
